What follows are compounds tested on soluble epoxide hydrolase (sEH) (assay: Fluorescent assay for soluble epoxide hydrolase (CMNPC substrate), percent inhibition at the recited concentration). Conditions: Inhibition Conc. 50 nM.
Assay type: biochemical
Description: Fluorescent Assay for Mouse and Human Soluble Epoxide Hydrolase Recombinant mouse sEH (MsEH) and human sEH (HsEH) were produced in a baculovirus expression system as previously reported. Grant et al., J. Biol. Chem., 268:17628-17633 (1993); Beetham et al., Arch. Biochem. Biophys., 305:197-201 (1993). The expressed proteins were purified from cell lysate by affinity chromatography. Wixtrom et al., Anal. Biochem., 169:71-80 (1988). Protein concentration was quantified using the Pierce BCA assay using bovine serum albumin as the calibrating standard. The preparations were at least 97% pure as judged by SDS-PAGE and scanning densitometry. They contained no detectable esterase or glutathione transferase activity which can interfere with the assay. The assay was also evaluated with similar results in crude cell lysates or homogenate of tissues. The IC50s for each inhibitor were determined according to the following procedure: […] Jones P. D. et al.; Analytical Biochemistry 2005; 343: pp. 66-75) Bis/Tris HCl 25 mM pH 7.0 containing 0.1 mg/mL of BSA (buffer […] at 0.25 mM in DMSO. Mother solution of enzyme in buffer A (Mouse sEH at 6 μg/mL and Human sEH at 5 μg/mL). Inhibitor dissolved in DMSO at the appropriate concentration. In a black 96 well plate, fill all the wells with 150 μL of buffer A. Add 2 μL of DMSO in well A2 and A3, and then add 2 μL of inhibitor solution in A1 and A4 through A12. Add 150 μL of buffer A in row A, then mix several time and transfer 150 μL to row B. Repeat this operation up to row H. The 150 μL removed from row H is discarded. Add 20 μL of buffer A in column 1 and 2, then add 20 μL of enzyme solution to column 3 to 12. Incubate the plate for 5 minutes in the plate reader at 30° C. During incubation prepare the working solution of substrate by mixing 3.68 mL of buffer A (4×0.920 mL) with 266 μL (2×133 μL) of substrate solution). At t=0, add 30 μL of working substrate solution with multi-channel pipette labeled “Briggs 303” and start the reading ([S]final: 5 μM). Read with ex: 330 nm (20 nm) and em: 465 nm (20 nm) every 30 second for 10 minutes. The velocities are used to analyze and calculate the IC50s. Tables 1-7 above provide the percent inhibition of the enzyme when tested at the concentration recited therein.

% inh. [%] | SMILES
87 | CC(=O)N1CCC(NC(=O)NCC23CC4CC(CC(C4)C2)C3)CC1 [Compound 1-1, 1-(1-acetyl-piperidin-4-yl)-3-(1-adamantyl-methyl)-urea]
13 | O=C(Nc1ccc(C(F)(F)F)cc1)NC1CCN(c2ccc(C(F)(F)F)cn2)CC1 [Compound 2-1]
97 | O=C(Nc1ccc(C(F)(F)F)cc1)NC1CCN(c2ncccc2C(F)(F)F)CC1 [Compound 2-2]
98 | O=C(NC1CCN(c2ccccc2)CC1)NC12CC3CC(CC(C3)C1)C2 [Compound 2-3, 1-(1-adamantyl)-3-(1-phenylpiperidin-4-yl)urea]
99 | O=C(Nc1ccc(C(F)(F)F)cc1)NC1CCN(c2ccccc2)CC1 [Compound 2-5, 1-(1-phenylpiperidin-4-yl)-3-(4-(trifluoro-methyl)phenyl)urea]
60 | NC(=O)c1cccnc1N1CCC(NC(=O)Nc2ccc(C(F)(F)F)cc2)CC1 [Compound 2-6, 2-(4-(3-(4-(trifluoro-methyl)phenyl)ureido)-piperidin-1-yl)nicotinamide]
90 | NS(=O)(=O)c1ccc(C(=O)N2CCC(NC(=O)Nc3ccc(C(F)(F)F)cc3)CC2)cc1 [Compound 4-1, 4-(4-(3-(4-(trifluoromethyl)phenyl)ureido)piperidine-1-carbonyl)benzene-sulfonamide]
98 | NS(=O)(=O)c1ccc(C(=O)N2CCC(NC(=O)Nc3ccc(OC(F)(F)F)cc3)CC2)cc1 [Compound 4-2, 4-(4-(3-(4-(trifluoromethoxy)-phenyl)ureido)-piperidine-1-carbonyl)benzenesulfonamide]
93 | NS(=O)(=O)c1ccc(C(=O)N2CCC(NC(=O)NC34CC5CC(CC(C5)C3)C4)CC2)cc1 [Compound 4-3, 4-(4-(3-(1-adamantyl)ureido)-piperidine-1-carbonyl)benzene-sulfonamide]
93 | NS(=O)(=O)c1cccc(C(=O)N2CCC(NC(=O)NC34CC5CC(CC(C5)C3)C4)CC2)c1 [Compound 4-4, 3-(4-(3-(1-adamantyl)ureido)-piperidine-1-carbonyl)benzene-sulfonamide]
99 | CNS(=O)(=O)c1cccc(C(=O)N2CCC(NC(=O)NC34CC5CC(CC(C5)C3)C4)CC2)c1 [Compound 4-5, 3-(4-(3-(1-adamantyl)ureido)-piperidine-1-carbonyl)-N-methylbenzene-sulfonamide]
99 | NS(=O)(=O)c1cccc(C(=O)N2CCC(NC(=O)Nc3ccc(C(F)(F)F)cc3)CC2)c1 [Compound 4-6, 3-(4-(3-(4-(trifluoromethyl)phenyl)ureido)piperidine-1-carbonyl)benzene-sulfonamide]
92 | CNS(=O)(=O)c1ccc(C(=O)N2CCC(NC(=O)Nc3ccc(C(F)(F)F)cc3)CC2)cc1 [Compound 4-7, 4-(4-(3-(4-(trifluoromethyl)phenyl)ureido)piperidine-1-carbonyl)-N-methylbenzene-sulfonamide]
93 | CNS(=O)(=O)c1ccc(C(=O)N2CCC(NC(=O)NC34CC5CC(CC(C5)C3)C4)CC2)cc1 [Compound 4-8, 4-(4-(3-(1-adamantyl)ureido)-piperidine-1-carbonyl)-N-methylbenzene-sulfonamide]
99 | CNS(=O)(=O)c1cccc(C(=O)N2CCC(NC(=O)Nc3ccc(C(F)(F)F)cc3)CC2)c1 [Compound 4-9, N-methyl-3-(4-(3-(4-(trifluoromethyl)phenyl)ureido)piperidine-1-carbonyl)benzene-sulfonamide]

Same assay, conditions: Inhibition Conc. 200 nM

% inh. [%] | SMILES
93 | CC(=O)N1CCC(NC(=O)NCc2ccc(C(F)(F)F)cc2)CC1 [Compound 1-3, 1-(1-acetylpiperidin-4-yl)-3-(4-(trifluoromethyl)benzyl)urea]
100 | CC(=O)N1CCC(NC(=O)NCCC(c2ccccc2)c2ccccc2)CC1 [Compound 1-7, 1-(1-acetypiperidin-4-yl)-3-(3,3-diphenylpropyl)urea]
98 | O=C(Nc1ccc(C(F)(F)F)cc1)NC1CCN(c2nccs2)CC1 [Compound 2-8, 1-(1-(thiazol-2-yl)piperidin-4-yl)-3-(4-(trifluoromethyl)phenyl)urea]
42 | CC(=O)N1CCC(NC(=O)NC23CC4CC(C2)C(=O)C(C4)C3)CC1 [Compound 3-9, 1-(1-acetylpiperidin-4-yl)-3-(4-oxoadamantyl)urea]
76 | CC(=O)N1CCC(NC(=O)NC23CC4CC(C2)C(F)(F)C(C4)C3)CC1 [Compound 3-10, 1-(1-acetylpiperidin-4-yl)-3-(4,4-difluoroadamantyl)urea]
88 | CC(=O)N1CCC(NC(=O)NC23CC4CC(C2)C(F)C(C4)C3)CC1 (stereo not drawn) [Compound 3-11, 1-(1-acetylpiperidin-4-yl)-3-(4-fluoroadamantyl)urea]

Same assay, conditions: Inhibition Conc. 500 nM

% inh. [%] | SMILES
92 | CC(=O)N1CCC(NC(=O)NCC2CCCCC2)CC1 [Compound 1-2, 1-(1-acetylpiperidin-4-yl)-3-(cyclo-hexylmethyl)urea]
85 | CC(=O)N1CCC(NC(=O)NCCCCCCCCO)CC1 [Compound 1-6, 1-(1-acetylpiperidin-4-yl)-3-(8-hydroxyoctyl)urea]
64 | O=C(Nc1ccc(C(F)(F)F)cc1)NC1CCN(c2ncccc2C(=O)O)CC1 [Compound 2-7]
70 | CC(=O)N1CCC(NC(=O)NC23CC4(F)CC(F)(CC(F)(C4)C2)C3)CC1 [Compound 3-1, 1-(1-acetylpiperidin-4-yl)-3-(3,5,7-trifluoroadamant-1-yl)urea]
63 | CC(=O)N1CCC(NC(=O)NC23CC4CC(F)(CC(F)(C4)C2)C3)CC1 [Compound 3-3, 1-(1-acetylpiperidin-4-yl)-3-(3,5-difluoroadamant-1-yl)urea]
82 | CC(=O)N1CCC(NC(=O)NC23CC4CC(CC(F)(C4)C2)C3)CC1 [Compound 3-4, 1-(1-acetylpiperidin-4-yl)-3-(3-fluoroadamant-1-yl)urea]

Same assay, conditions: Inhibition Conc. 2000 nM

% inh. [%] | SMILES
80 | CC(=O)N1CCC(NC(=O)NCC2CCOCC2)CC1 [Compound 1-4, 1-(1-acetylpiperidin-4-yl)-3-((tetrahydro-2H-pyran-4-yl)methyl)urea]
66 | COc1ccc(CNC(=O)NC2CCN(C(C)=O)CC2)cc1OC [Compound 1-5, 1-(1-acetylpiperidin-4-yl)-3-(3,4-dimethoxy-benzyl)urea]
95 | COC(=O)c1ccc(CNC(=O)NC2CCN(C(C)=O)CC2)cc1 [Compound 1-8, methyl 4-((3-(1-acetylpiperidin-4-yl)ureido)methyl)benzoate]
99 | O=C(Nc1ccc(OC(F)(F)F)cc1)NC1CCN(c2ccccc2)CC1 [Compound 2-9, 1-(1-phenylpiperidin-4-yl)-3-(4-(trifluoromethoxy)phenyl)urea]
100 | O=C(Nc1ccc(OC(F)(F)F)cc1)NC1CCN(c2ccc(F)cc2)CC1 [Compound 2-11, 1-(1-(4-fluorophenyl)piperidin-4-yl)-3-(4-(trifluoromethoxy)phenyl)urea]
18 | O=C(Nc1ccc(C(F)(F)F)cc1)NC1CCN(c2ccccc2F)CC1 [Compound 2-13, 1-(1-(2-fluorophenyl)piperidin-4-yl)-3-(4-(trifluoromethyl)phenyl)urea]

Same assay, conditions: Inhibition Conc. 5000 nM

% inh. [%] | SMILES
87 | CC(=O)N1CCC(NC(=O)NC23CC4CC(C2)C(O)C(C4)C3)CC1 (single isomer, unassigned) [Compound 3-5, 1-(1-acetylpiperidin-4-yl)-3-(4-hydroxyadamant-1-yl)urea]
81 | CC(=O)N1CCC(NC(=O)NC23CC4CC(C2)C(O)C(C4)C3)CC1 (single isomer, unassigned) [Compound 3-7]
76 | CC(=O)N1CCC(NC(=O)NC23CC4CC(C2)C(O)C(C4)C3)CC1 (single isomer, unassigned) [Compound 3-8]
92 | O=C(NC1CCN(c2ccncc2)CC1)NC12CC3CC(CC(C3)C1)C2 [Compound 2-4, 1-(1-adamantyl)-3-(1-(pyridin-4-yl)piperidin-4-yl)urea]
67 | CC(=O)N1CCC(NC(=O)NC23CC4CC(CC(O)(C4)C2)C3)CC1 [Compound 3-2, 1-(1-acetylpiperidin-4-yl)-3-(3-hydroxyadamant-1-yl)urea]

Same assay, conditions: Inhibition Conc. 50000 nM

% inh. [%] | SMILES
94 | CC(=O)N1CCC(NC(=O)NC23CC4CC(CC(C4)C2O)C3)CC1 (stereo not drawn) [Compound 3-6, 1-(1-acetylpiperidin-4-yl)-3-(2-hydroxyadamant-1-yl)urea]

Reference: patent publication US20080227780A1, “SOLUBLE EPOXIDE HYDROLASE INHIBITORS” (Arete Therapeutics, Inc., priority 2007, published 2008)
